Results: US20250235437A1, “PROTEOLYSIS TARGETING CHIMERA (PROTAC) MOLECULE FOR DEGRADATION OF ENL AND CANCER THERAPY” (Baylor College of Medicine, priority 2022, published 2025)

How the values were obtained:
Hela cell = settings: Hela cells, footnote b: reported in Li, et al. J Hematol Oncol, 2022; read-out: Anti-proliferative activity EC50, Hela; cited from earlier work
Panc1 = settings: read-out: EC50, proliferation; Panc1 (pancreatic) cells
Description: (§1) FIGS. 6A-6G summarize the antitumor activities of ENL-targeting compounds.

[1] = tested on: Kasumi-1, RPMI-8226 and U266 cells; settings: read-out: EC50, proliferation; AML Kasumi-1 and myeloma RPMI-8226 and U266 cells, range over cell lines
Description: as §1

[2] = target: T1, ENL YEATS-H3K27ac interaction (Homo sapiens, UniProt Q03111); assay: ALPHA assay, inhibition of ENL YEATS-H3K27ac interaction; settings: read-out: IC50, inhibition of ENL YEATS-H3K27ac interaction
T1 sequence (Q03111 1-138 limits assumed): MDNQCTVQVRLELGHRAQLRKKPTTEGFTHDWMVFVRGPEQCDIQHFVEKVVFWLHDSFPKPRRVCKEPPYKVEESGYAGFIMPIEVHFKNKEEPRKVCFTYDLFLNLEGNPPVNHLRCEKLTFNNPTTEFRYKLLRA

ENL [3] = target: T2, ENL (Homo sapiens, UniProt Q03111); assay: Nuclear and cytoplasmic ENL levels in MV4;11 cells, 4 days (Western blot); type: cell-based
T2 construct: tested whether the compounds degrade ENL and AF9 in MV4;11 leukemia cells; endogenous in cells; host or cells: MV4;11; Molm-13
T2 sequence (Q03111 1-559): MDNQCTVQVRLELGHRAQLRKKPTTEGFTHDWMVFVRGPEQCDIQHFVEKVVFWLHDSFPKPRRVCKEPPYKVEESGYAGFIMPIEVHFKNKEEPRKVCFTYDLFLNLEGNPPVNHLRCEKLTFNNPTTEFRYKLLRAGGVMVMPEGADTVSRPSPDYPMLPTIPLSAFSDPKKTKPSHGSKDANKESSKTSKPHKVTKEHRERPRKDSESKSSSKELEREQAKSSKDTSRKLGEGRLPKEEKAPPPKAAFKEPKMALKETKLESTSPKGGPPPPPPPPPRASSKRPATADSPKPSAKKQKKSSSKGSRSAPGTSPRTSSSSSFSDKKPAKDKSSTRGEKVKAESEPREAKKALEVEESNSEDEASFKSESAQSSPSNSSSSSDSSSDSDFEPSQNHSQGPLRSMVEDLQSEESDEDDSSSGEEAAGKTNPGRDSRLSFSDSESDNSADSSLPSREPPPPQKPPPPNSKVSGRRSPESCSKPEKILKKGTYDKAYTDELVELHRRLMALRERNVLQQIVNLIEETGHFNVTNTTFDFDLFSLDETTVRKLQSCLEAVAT
Description: Upon treatment of MV4;11 cells with these compounds for 4 days, cytoplasmic and nuclear proteins were separated and subjected to SDS-PAGE/Western blot.

RPMI-8226 cells [4] = assay: Gene profiling and GSEA in RPMI-8226 cells; type: cell-based; settings: 500 nM for 4 days
[5] = tested on: AF9, AFF4, cyclin-T1, DOT1L; assay: Levels of other SEC-related proteins in MV4;11 cells, 4 days (Western blot); type: cell-based; settings: nucleus
Description: Applicant further investigated how compound 1 affects ENL, AF9 and other proteins of SEC in the cytoplasmic and nuclear compartments, the latter of which are more relevant to the functions of these transcription cofactors. […] Upon treatment of MV4;11 cells with these compounds for 4 days, cytoplasmic and nuclear proteins were separated and subjected to SDS-PAGE/Western blot.

ENL [6] = target: T2, ENL; assay: ENL degradation in Molm-13 cells (Western blot); type: cell-based; settings: Molm-13 cells (MLL1-AF9), 24 h
Protocol: (§2) Next, Applicant tested whether the compounds degrade ENL and AF9 in MV4;11 leukemia cells with the .MLL1-AF4 oncogene. Upon compound treatment for 24 h, the cells were washed, lysed, and the lysates subjected to SDS-PAGE (sodium dodecyl sulphate-polyacrylamide gel electrophoresis) followed by detection with Western blot.
In addition, compound 1 efficiently degraded ENL in another MLL1-r leukemia Molm-13 cells (with MLL1-AF9) with DC50 of 47 nM and Dmax of ˜88% (FIG. 3E). Moreover, significant ENL degradation can be detected in 2 h and depletion occurred within 24 h (FIG. 3F).

ENL [7] = target: T2, ENL; assay: ENL degradation in MV4;11 cells (Western blot); type: cell-based
Protocol: as §2

Molm-13 cells [8] = assay: Differentiation of Molm-13 cells (CD14, CD11b); type: cell-based; settings: 3 μM for 5 days
[9] = In vivo toxicity in C57BL/6 mice; settings: 30 mg/kg/day for 13 days
Protocol: In vivo antitumor activity of compound 1 was evaluated in a commonly used mouse model of Molm-13 leukemia. First, in vivo toxicity was assessed in C57BL/6 mice.

RPMI-8226 cells [10] = assay: Anti-proliferative activity, RPMI-8226 cells; type: cell-based
mutant ENL (mENL) = target: T3, mutant ENL (mENL) (Homo sapiens, UniProt Q03111, INS117NHL); assay: Degradation of mutant and WT ENL in transfected HEK293T cells; type: cell-based
T3 construct: expressed in transfected cells; host or cells: HEK293T
T3 sequence (Q03111 with tags, fused parts or gaps INS117NHL): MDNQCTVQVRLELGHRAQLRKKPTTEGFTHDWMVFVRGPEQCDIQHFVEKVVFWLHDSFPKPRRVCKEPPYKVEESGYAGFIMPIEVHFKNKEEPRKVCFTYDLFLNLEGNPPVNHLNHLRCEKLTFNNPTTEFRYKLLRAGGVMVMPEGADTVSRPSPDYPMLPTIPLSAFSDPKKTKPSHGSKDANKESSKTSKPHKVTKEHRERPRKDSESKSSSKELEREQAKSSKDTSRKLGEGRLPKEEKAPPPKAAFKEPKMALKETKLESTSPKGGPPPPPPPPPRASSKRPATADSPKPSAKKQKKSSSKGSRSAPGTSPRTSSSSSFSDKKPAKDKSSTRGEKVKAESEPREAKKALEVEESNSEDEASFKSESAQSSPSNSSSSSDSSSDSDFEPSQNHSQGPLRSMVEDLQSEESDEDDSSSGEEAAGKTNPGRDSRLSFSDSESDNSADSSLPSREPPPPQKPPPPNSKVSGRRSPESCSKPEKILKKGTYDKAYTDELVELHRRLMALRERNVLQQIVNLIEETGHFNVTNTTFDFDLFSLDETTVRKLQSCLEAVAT
T3 sequence (Q96SW2 whole entry partner): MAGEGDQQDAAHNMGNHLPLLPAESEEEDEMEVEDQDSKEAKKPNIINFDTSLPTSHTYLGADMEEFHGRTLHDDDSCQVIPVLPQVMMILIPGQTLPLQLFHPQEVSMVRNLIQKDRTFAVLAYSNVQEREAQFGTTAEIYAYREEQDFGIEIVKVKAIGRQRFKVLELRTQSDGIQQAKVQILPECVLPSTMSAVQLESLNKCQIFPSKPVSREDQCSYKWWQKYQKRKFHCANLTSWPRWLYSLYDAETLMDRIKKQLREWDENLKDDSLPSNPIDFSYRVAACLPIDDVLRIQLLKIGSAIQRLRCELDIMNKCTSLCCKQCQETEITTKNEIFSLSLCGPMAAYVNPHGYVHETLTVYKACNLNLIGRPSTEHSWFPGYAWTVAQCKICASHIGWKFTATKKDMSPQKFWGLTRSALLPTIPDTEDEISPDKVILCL
Protocol: Ability of compound 1 to degrade mutant ENL, which has been implicated to cause Wilms tumor, was evaluated. […] A pcDNA3.1(+)-N-DYK plasmid containing a mutant ENL (mENL) with a short insertion of -NHL- between L117 and R118 was transfected into 5×10^5 HEK293T cells. Upon incubation for 24 h, expression of the FLAG-tagged mENL can be dose-dependently detected with as low as […] of the plasmid (FIG. 7A). Using a FLAG antibody appeared to be less quantitative because of a higher background staining for the control samples (FIGS. 7A-7C, left panels).
With 0.1 μg of the plasmid, compound 1 can efficiently degrade both WT and mutant ENL proteins with Dmax of ˜95% at ˜500 nM upon 24 h incubation (FIG. 7B). […] It was ineffective with […] of the plasmid (not shown), presumably because the rate of mENL synthesis in cells was higher than that of 1-mediated degradation.

Molm-13 cells [11] = assay: Anti-proliferative activity, Molm-13 cells; type: cell-based; settings: Molm-13 cells, FIG. 6B
Myc = Myc expression in RPMI-8226 cells; type: cell-based; settings: 4 days

Structure (SMILES): C[C@H]1CCCN1Cc1nc2cc(NC(=O)c3ccc4c(cnn4CCCCCCCCNc4cccc5c4C(=O)N(C4CCC(=O)NC4=O)C5=O)c3)ccc2[nH]1 (stereo partly shown) [Compound 1]
- EC50 (Hela cell): > 50000 nM
- EC50 (Panc1): > 50000 nM
- EC50 [1]: 1100 to 4100 nM
- IC50 [2]: 170 nM
- ENL level in the cytoplasmic extract (ENL [3]): significantly reduced
- ENL level in the nucleus (ENL [3]): significantly reduced dose-dependently and almost depleted with 500 nM
- expression of MYC target gene set (GSEA) (RPMI-8226 cells [4]): significantly down-regulated
- levels of AF9, AFF4, cyclin-T1 and DOT1L [5]: not significantly decreased
- DC50 (ENL [6]): 47 nM
- Dmax, ENL (ENL [6]): ~88%
- Dmax (maximal degradation), ENL (ENL [7]; 24 h treatment): ~95%
- concentration at which ENL is almost depleted (ENL [7]; 24 h treatment): ~500 nM
- DC50 (ENL [7]; 24 h treatment, read-out: DC50 (concentration at which a protein is reduced by 50%), ENL): 37 nM
- concentration of maximal ENL-degrading activity (ENL [7]; FIG. 3D): ~500 nM
- concentrations at which ENL level started to recover (hook effect) (ENL [7]; FIG. 3D): 1 to 10 µM
- cell differentiation (CD14, CD11b) (Molm-13 cells [8]): induced cell differentiation
- body weight [9]: did not cause significant weight losses
- hematopoiesis and overt toxicities [9]: did not inhibit normal hematopoiesis or cause other overt toxicities
- blood cell counts vs control ([9]; blood test on day-14): no significant differences in blood cell counts
- EC50 (RPMI-8226 cells [10]): 1200 ± 230 nM
- Dmax, WT and mutant ENL (mutant ENL (mENL); 0.1 μg plasmid, ~500 nM, 24 h incubation): ~95%
- degradation of WT and mutant ENLs (mutant ENL (mENL); 0.2 μg plasmid, 500 nM): reduced efficiency
- degradation of WT and mutant ENLs (mutant ENL (mENL); 1 g of the plasmid): ineffective
- time-dependent activity against cell proliferation (Molm-13 cells [11]): did not inhibit cell proliferation during the first 4 days
- expression of MYC (Myc): dose-dependently decreased expression of MYC
